Blank lines part the entries; values can stand above or below the compound they belong to.
Experiments:
[1] = test system: A2780-SP cells (ovarian cancer stem cells); assay: Cell viability assay (Cell-titer Glo), A2780-SP sphere cell viability; type: cell-based; conditions: for GI50: A2780-SP ovarian cancer stem cells, 1,500 cells per well, Cell-titer Glo; for viability of A2780-SP cells (ovarian cancer stem cells), result in words: 1500 cells, 7 days, Cell titer Glo
Na channel = assay: Whole cell patch clamp recording, Na channel current in A2780-SP cells; type: cell-based; conditions: 10 μM, 5 minutes
[2] = A2780-SP xenograft model, change in body weight; type: in vivo; conditions: 3 mg/kg, intraperitoneal, nude mouse
Experimental: (§1) In order to confirm the inhibitory effect of the pharmaceutical composition of Examples of the present invention in the ovarian cancer stem cell tumor model, each nude mouse was subcutaneously inoculated with 2×10^6 A2780-SP (ovarian cancer stem cell line) cells. After the implantation, the size of tumor formation was measured using a caliper. When the tumor volume became 100 mm^3 or more, the experimental group was divided into the control group (vehicle) and the pharmaceutical composition of Examples of the present invention treated group (3 mg/kg of trimebutine) and the drug was administered to confirm the effect of the drug. The drug was administered […] through intraperitoneal administration, and the size of the tumor and the weight of the mouse were measured at intervals of 3 to 4 days. Then, all mice were euthanized on the day of the end of the experiment, and finally the size of the tumor and the weight were measured.
(§2) In order to confirm the ovarian cancer treatment effect of the pharmaceutical composition containing trimebutine of the present invention in vivo, an animal model experiment was performed. The specific experimental method is the same as the animal experiment method described in Experimental Protocol 5.

ALDH, OCT4 and SOX2 = assay: Western blotting of markers related to cancer stemness in A2780-SP cells; type: cell-based; conditions: 1 μM or 10 μM
Experimental: A2780-SP cells (ovarian cancer stem cells) were plated in an ultra-low attachment 6-well plate (Corning) at the density of 4×10^5 viable cells per well and cultured in a cancer stem cell medium. On the next day of culture, the medium was replaced with NBM (Neuro Basal Medium), and the cells were cultured for 16 hours in starvation. Then, the cells were treated with the compound of Example 1 at the concentration of 1 μM or 10 μM for 1 hour. The medium was replaced with a cancer stem cell medium containing the compound, and the cells were collected and cultured for an additional 30 minutes before being lysed in RiPA buffer. The extracted protein was separated by SDS-PAGE gel and transferred to a PVDF membrane for Western blotting. […]
Signals were developed on an enhanced chemiluminescence HRP substrate (Bio-Rad) and detected using LAS-3000 mini (Fuji film). The signals were quantified using Image J software (NIH Image).
In order to confirm the anticancer effect through the changes in the expressions of the markers related to sternness and the proteins related to survival and proliferation of cancer stem cells according to the treatment of the pharmaceutical composition containing trimebutine of the present invention, the expression levels of various factors were analyzed by Western blotting. […]

BKCa channel = molecular target: T1, BKCa channel (Homo sapiens, UniProt Q12791); assay: Whole cell patch clamp recording, BKCa channel current in A2780-SP cells; type: cell-based; conditions: 10 μM, 5 minutes
T1 construct: K^+ current of the BK channel was measured by increasing the membrane voltage by 10 mV starting at −80 mV; endogenous in cells; host or cells: A2780-SP (ovarian cancer stem cells)
T1 sequence (Q12791 whole entry): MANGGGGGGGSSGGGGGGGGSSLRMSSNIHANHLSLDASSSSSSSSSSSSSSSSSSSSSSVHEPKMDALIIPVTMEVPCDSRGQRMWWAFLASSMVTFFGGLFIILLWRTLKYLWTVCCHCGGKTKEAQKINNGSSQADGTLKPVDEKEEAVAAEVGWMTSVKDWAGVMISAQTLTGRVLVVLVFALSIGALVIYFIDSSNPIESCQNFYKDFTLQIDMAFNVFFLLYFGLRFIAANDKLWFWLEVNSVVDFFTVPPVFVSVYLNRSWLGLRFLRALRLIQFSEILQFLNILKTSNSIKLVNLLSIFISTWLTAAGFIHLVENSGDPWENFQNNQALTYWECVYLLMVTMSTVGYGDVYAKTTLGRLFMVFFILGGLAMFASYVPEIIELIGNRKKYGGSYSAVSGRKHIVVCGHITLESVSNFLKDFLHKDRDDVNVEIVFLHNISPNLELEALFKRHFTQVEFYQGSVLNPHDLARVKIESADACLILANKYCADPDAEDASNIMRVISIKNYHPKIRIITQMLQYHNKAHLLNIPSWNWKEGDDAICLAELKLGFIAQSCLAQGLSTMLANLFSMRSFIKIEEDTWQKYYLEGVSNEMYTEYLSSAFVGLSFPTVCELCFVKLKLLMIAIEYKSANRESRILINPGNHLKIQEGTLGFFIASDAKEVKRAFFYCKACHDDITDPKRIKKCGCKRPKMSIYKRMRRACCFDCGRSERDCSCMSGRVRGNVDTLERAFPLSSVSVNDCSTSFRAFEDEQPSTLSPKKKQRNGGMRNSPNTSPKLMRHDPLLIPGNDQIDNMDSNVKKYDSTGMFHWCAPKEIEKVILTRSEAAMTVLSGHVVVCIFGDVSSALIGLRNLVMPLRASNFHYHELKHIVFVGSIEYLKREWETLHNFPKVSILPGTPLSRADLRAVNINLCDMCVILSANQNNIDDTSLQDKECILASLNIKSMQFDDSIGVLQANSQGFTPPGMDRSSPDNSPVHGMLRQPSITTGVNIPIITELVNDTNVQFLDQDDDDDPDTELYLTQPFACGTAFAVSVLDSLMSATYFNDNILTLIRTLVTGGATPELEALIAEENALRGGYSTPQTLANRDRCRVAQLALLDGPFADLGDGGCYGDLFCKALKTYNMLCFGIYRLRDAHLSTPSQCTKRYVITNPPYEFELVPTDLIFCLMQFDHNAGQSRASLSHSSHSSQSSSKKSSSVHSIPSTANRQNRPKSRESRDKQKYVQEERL

L-type Ca channel = assay: Whole cell patch clamp recording, Ca channel current in A2780-SP cells; type: cell-based; conditions: 10 μM, 5 minutes
A2780-SP xenograft = A2780-SP xenograft model, tumor formation; type: in vivo; conditions: 3 mg/kg, intraperitoneal, nude mouse
Experimental: as §1, §2

β-catenin = β-catenin S552 phosphorylation and translocation experiments in A2780-SP cells; type: cell-based; conditions: 1 μM or 10 μM, 24 hours
Experimental: A2780-SP cells (ovarian cancer stem cells) were plated in an ultra-low attachment round bottom 6-well plate (Corning) at the density of 4×10^5 viable cells per well and cultured in a cancer stem cell medium (CM). The cancer stem cell medium is composed of a neurobasal medium supplemented with 20 ng/ml of bFGF, 10 ng/ml of EGF, 2.5 ng/ml of amphotericin B, HEPES, Glutamax and B27. On the next day of culture, the cells were treated with the compound at the concentration of 1 μM or 10 μM for 24 hours. The control group was treated in the same manner as above for 24 hours with a neurobasal medium (NBM) and a cancer stem cell medium (CM) containing DMSO.
To measure the degree of phosphorylation of β-catenin S552, 100 μl of RIPA buffer (containing 1× protease inhibitor and phosphatase inhibitor) was added to the prepared cells, and the cells were disrupted by shaking once every 5 minutes for a total of 15 minutes. The disrupted cells were centrifuged at 13,000 rpm for 15 minutes to collect only the supernatant protein, and the obtained protein was quantified using a BCA protein quantification kit (Pierece, MA, USA), and a total of 15 μg of the protein was used for Western blotting. NE-PER Nuclear and Cytoplasmic Extraction Reagents (Thermoscientific, #78833) were used to separate cytoplasmic and nuclear proteins. […]

[3] = test system: A2780 cells (ovarian cancer cells); assay: Cell viability assay (Cell-titer Glo), A2780 cell viability; type: cell-based; conditions: 3 days

GI50 [1]: 2900 nM
SMILES: CCOC(=O)C1=C(C)NC(C)=C(C(=O)OCC)C1c1ccccc1/C=C/C(=O)OC(C)(C)C [Comparative Example 1 (lacidipine), Lacidipine]

GI50 [1]: 2950 nM
SMILES: COc1ccc(CN2CCN(C(c3ccc(F)cc3)c3ccc(F)cc3)CC2)c(OC)c1OC [Comparative Example 1 (lomerizine), Lomerizine]

More lines, now with the values behind:

SMILES: COC(=O)C1=C(C)NC(C)=C(C(=O)O[C@@H]2CCCN(Cc3ccccc3)C2)[C@@H]1c1cccc([N+](=O)[O-])c1 (racemic) [Comparative Example 1 (benidipine), Benidipine]
GI50 [1]: 2640 nM

SMILES: CCC(COC(=O)c1cc(OC)c(OC)c(OC)c1)(c1ccccc1)N(C)C (centres unmarked) [Example 1, Trimebutine]
amplitude of Na current (Na channel): remarkably suppressed
change in body weight [2]: no change in body weight
expressions of ALDH, OCT4 and SOX2, the markers related to cancer stemness (ALDH, OCT4 and SOX2): reduced
amplitude of BKCa current (BKCa channel): remarkably suppressed
amplitude of Ca current (L-type Ca channel): remarkably suppressed
tumor formation (A2780-SP xenograft): specifically inhibited tumor formation
degree of β-catenin S552 phosphorylation (β-catenin): reduced
translocation of β-catenin into the nucleus (β-catenin): reduced
viability of A2780-SP cells (ovarian cancer stem cells), result in words [1]: reduced the viability
viability of A2780-SP cells (ovarian cancer stem cells), result in words ([1]; listed as trimebutine): excellent effect of inhibiting the survival of ovarian cancer stem cells
GI50 [1]: 401 nM
selectivity for cancer stem cells rather than cancer cells ([1]; A2780-SP versus A2780, FIGS. 1F and 1G compared with FIGS. 1A to 1E): excellent selectivity

SMILES: COC(=O)C1=C(C)NC(C)=C(C(=O)OCCN2CCN(C(c3ccccc3)c3ccccc3)CC2)C1c1cccc([N+](=O)[O-])c1 (centres unmarked) [Comparative Example 1 (manidipine), Manidipine]
GI50 [3]: ~9670 nM
GI50 [1]: 2700 nM

Source: patent US12285401B2, “Pharmaceutical composition comprising trimebutine or pharmaceutically acceptable salt thereof as an active ingredient for prevention or treatment of cancer” (DAEGU-GYEONGBUK MEDICAL INNOVATION FOUNDATION, priority 2019, dated 2025)
